Assays:
[1] = tested on: C57BL/6 mice; assay: Tnf-α-driven systemic inflammatory response syndrome (SIRS) model, hypothermia; type: in vivo; conditions: 15 min after Tnf-α (0.3 mg/kg)/zVAD i.v., 5 h, Tnf-α/zVAD alone -9.3 ± 0.3, vehicle -1.9 ± 0.5
Protocol: TNF-α driven systemic inflammatory response syndrome (SIRS) model was performed as described before (Immunity 35, 908-918 (2011)). Briefly, male C57BL/6 mice (n=6 per group) were injected into the tail vain with a volume of 125 µl per 25 g mouse of either vehicle (15 % PEG 200; 8.4 % DMSO; 0.6 % NaCl) or a mixture of murine Tnf-α (0.3 mg/kg) and zVAD (6.7 mg/kg) prepared in vehicle. No Tnf-α/zVAD was administered to the vehicle group. 15 min after induction of hypothermia by application of Tnf-α/zVAD mix, animals were orally dosed with RIPK1 inhibitor or GSK`963. Body temperature was monitored every hour using radio-frequency identification (RFID) technology with IPTT-300 transponders that were injected subcutaneously 2-3 days before initiation of the experiment.
Next, the effects of RIPK1 inhibition were assessed in vivo using a murine Tnf-α-driven systemic inflammatory response syndrome model (Immunity 35, 908-918 (2011)). C57BL/6 mice (n=6 per group) were injected of either vehicle (15 % PEG 200; 8.4 % DMSO; 0.6 % NaCL 0.9 %) or a mixture of murine Tnf-α (0.3 mg/kg) and zVAD (16.7 mg/kg) into the tail vein. 15 minutes after induction of hypothermia, animals were orally dosed with the RIPK1 inhibitors SAR443122 or GSK`963, a previously described RIPK1 inhibitor ( Cell Death Discov 1, 15009 (2015)). Body temperature was monitored up to 5 hours using radio-frequency identification technology with IPTT-300 transponders that were injected subcutaneously 2-3 days before initiation of the experiment (Fig. 4A). Animals receiving the Tnf-α/zVAD mixture rapidly responded with a significant decrease of body temperature within 5 hours from 37.3 ± 0.2 °C to 27.9 ± 0.2 °C and a delta temperature of -9.3 ± 0.3 °C (p=0.0002) compared to vehicle (-1.9 ± 0.5 °C). Oral administration of RIPK1 inhibitor led to a dose dependent increase of delta body temperature (1 mg/kg: -8.8 ± 0.5 °C; 5 mg/kg: -7.6 ± 1.2 °C; 15 mg/kg: -3.4 ± 1.3 °C, p=0.0007 to Tnf-α/zVAD) (Fig. 4B).

[2] = tested on: primary human keratinocytes; assay: Multiplex ELISA of cytokines released by keratinocytes after cell death induction; type: cell-based; conditions: 24 h
Protocol: (§1) Primary human keratinocytes were obtained from healthy donors by suction blister as reported before (J Allergy Clin Immunol 141, 1320-1333 e1311 (2018)) and donor characteristics are listed in Table S3. Epidermal keratinocytes were cultured in keratinocyte medium (DermaLife Basal Medium supplemented with DermaLife K LifeFactor Kit (Lifeline Cell Technology, LL-0007)) at 37 °C, 5 % CO2 and second- to third-passages were used. At 70-80 % of confluence, keratinocytes were pre-incubated for 1 h with RIPK1 inhibitor (100 nM or as indicated, SANOFI) followed by stimulation with rhIFN-γ (100 ng/ml or as indicated, R&D, #285-IF-100/CF) and rhTNF-α (100 ng/ml or as indicated, R&D, #210_TA/CF) in the presence of zVAD (20 µM, Cell Signaling, #60332), SMAC (1 µM, LC Laboratories, #B-9135) and the RIPK1 inhibitor for 24 h in keratinocyte medium without hydrocortisone.
Cell free supernatants derived from keratinocyte stimulation experiments or lesional TCS from LP/LE patients were analysed for 27 cytokines, chemokines and growth factors using the Bio-Plex Pro Human Cytokine 27-plex Assay (Bio-Rad Laboratories, Hercules, Calif) according to the manufacturer's recommendation.

[3] = tested on: keratinocyte skin equivalents; assay: Three-dimensional keratinocyte skin equivalents stimulated with LP/LE-TCS, histology and epidermal thickness; type: cell-based, human; conditions: 100 nM inhibitor, LP/LE-TCS 1:10 + zVAD + SMAC, 72 h
Protocol: Three-dimensional keratinocyte skin equivalents were generated as described before Arch Dermatol Res 296, 203-211 (2004)). Briefly, 3.0E^5 primary human keratinocytes were seeded in 500 µL keratinocyte medium with 1.5 mM CaCh into the insert and placed in a well containing the same medium. After two days, keratinocytes were exposed to the air-liquid interface and medium in the surrounding well was supplemented with 50 µg/mL Vitamin C. Nine days after airlift, the skin equivalents were pre-treated for 1 h with RIPK1 inhibitor (100 nM, SANOFI) followed by a stimulation with supernatant mix of lesional T cells from LP and LE patients (1: 10 diluted) in the presence of zVAD (20 µM, Cell Signaling, #60332), SMAC (1 µM, LC Laboratories, #B-9135) and the RIPK1 inhibitor for 72 h. Afterwards, membranes of the fixated skin equivalents were cut out with a scalpel, divided into two pieces, formalin fixed and embedded in paraffin. […] Concentrations of key cytokines in the supernatant mix of lesional T cells were determined by a multiplex ELISA (Biorad) and listed in Table S4. […]

[4] = biological target: T1, RIPK1 (Homo sapiens, UniProt Q13546); assay: Western blot of RIPK1-pS166 autophosphorylation in keratinocytes; type: cell-based; conditions: RIPK1-pS166, 100 nM inhibitor, 6 h after IFN-γ [10 ng/ml] + TNF-α [10 ng/ml] + zVAD [20 µM]
T1 construct: Detection of RIPK1-pS 166 in WB analysis of primary human keratinocytes; endogenous in cells; host or cells: primary human keratinocytes from healthy donors (suction blister)
T1 sequence (Q13546 1-671): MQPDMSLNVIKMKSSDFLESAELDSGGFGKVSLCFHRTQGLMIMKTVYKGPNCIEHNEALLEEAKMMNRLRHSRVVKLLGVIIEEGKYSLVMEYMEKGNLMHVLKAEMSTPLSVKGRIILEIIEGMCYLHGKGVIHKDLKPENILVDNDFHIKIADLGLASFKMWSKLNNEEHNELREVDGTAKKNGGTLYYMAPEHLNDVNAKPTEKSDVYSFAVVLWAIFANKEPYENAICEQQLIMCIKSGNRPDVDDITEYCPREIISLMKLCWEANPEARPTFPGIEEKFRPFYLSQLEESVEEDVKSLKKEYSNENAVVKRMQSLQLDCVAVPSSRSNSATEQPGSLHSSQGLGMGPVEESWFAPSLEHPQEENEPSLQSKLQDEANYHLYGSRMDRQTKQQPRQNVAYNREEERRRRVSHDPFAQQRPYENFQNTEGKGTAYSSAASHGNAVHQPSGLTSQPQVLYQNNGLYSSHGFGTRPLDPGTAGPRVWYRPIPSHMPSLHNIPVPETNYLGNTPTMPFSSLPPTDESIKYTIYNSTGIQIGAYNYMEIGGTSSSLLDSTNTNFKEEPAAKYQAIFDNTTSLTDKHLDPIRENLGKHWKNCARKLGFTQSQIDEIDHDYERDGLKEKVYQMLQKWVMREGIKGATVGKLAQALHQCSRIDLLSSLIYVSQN
Protocol: Keratinocytes were lysed in RIPA lysis buffer (Santa Cruz) supplemented with 1 mM sodium orthovanadate, 2mM PMSF and proteinase inhibitor cocktail (1:70) according to the manufacturer's instructions.

[5] = tested on: lesional skin of LP patients; assay: Human lesional skin biopsy cultures ex vivo, gene expression by qPCR; type: cell-based; conditions: 1 µM inhibitor, 4 h, LP skin biopsies (n=5), compared to autologous non-treated controls
Protocol: 6 mm punch biopsies of lesional skin of LP patients (n=5) were obtained under local anaesthesia. Biopsies were divided into two parts and treated with the RIPK1 inhibitor (1 µM, SANOFI) or without as untreated control sample for 4 h in T cell media (RPMI 1640 medium with 1 % human serum, 0.1 mM non-essential aminoacids, 2 mM L-Glutamine, 1 mM sodium pyruvate and 100 U/mL penicillin/streptomycin). After stimulation, biopsies were stored in RNALater® solution at -80 °C until RNA preparation. RNA was isolated using QIAzol Lysis Reagent (Qiagen) and miRNeasy Mini Kit (Qiagen) according to manufacturer's protocol. mRNA was transcribed into cDNA with Applied Biosytems High Capacity cDNA Reverse Transcription Kit (Thermo Fisher Scientific). Gene expression was measured on an Applied Biosystems ViiA7 Real-Time PCR system (Thermo Fisher Scientific) using Fast Start Universal SYBRGreen Master Rox (Roche). Primers were ordered from Metabion (http://www.metabion.com) and are listed in supplementary Table S5. Data are shown as relative gene expression to untreated sample using 2^-(ΔΔcT) method. Table S5. Primer sequences. Fw = forward. rv = reverse.

[6] = tested on: primary human keratinocytes; assay: Cell viability assay (MTS/PMS) after cell death induction with IFN-γ + TNF-α + zVAD + SMAC; type: cell-based; conditions: 4 nM RIPK1 inhibitor (or higher), zVAD [20 µM] and SMAC [1 µM], 24 h, normalized to zVAD + SMAC (100 %), stimulated control 43,6 % ± 7.6 %, n=4
Protocol: as §1
Cell viability of cultured keratinocytes was determined using CellTiter 96® Aqueous NonRadioactive Cell Proliferation Assay (Promega, G5421) according to manufacturer's instructions. MTS/PMS reagent was used 1:6 diluted in keratinocyte medium without hydrocortisone and incubated for 1 h. Afterwards, supernatants were analysed by ELISA at 490 nm minus 700 nm as reference. To calculate the percentage of cell viability to ZS extinction values were normalized to the control stimulation zVAD + SMAC (100 %).

[7] = tested on: keratinocyte skin equivalents; assay: Three-dimensional keratinocyte skin equivalents stimulated with LP/LE-TCS, secreted cytokines in supernatant; type: cell-based, human; conditions: 100 nM inhibitor, 72 h, relative concentration to stimulated control (ZS + LP/LE-TCS) without inhibitor, n=3
Protocol: Three-dimensional keratinocyte skin equivalents were generated as described before Arch Dermatol Res 296, 203-211 (2004)). Briefly, 3.0E^5 primary human keratinocytes were seeded in 500 µL keratinocyte medium with 1.5 mM CaCh into the insert and placed in a well containing the same medium. After two days, keratinocytes were exposed to the air-liquid interface and medium in the surrounding well was supplemented with 50 µg/mL Vitamin C. Nine days after airlift, the skin equivalents were pre-treated for 1 h with RIPK1 inhibitor (100 nM, SANOFI) followed by a stimulation with supernatant mix of lesional T cells from LP and LE patients (1: 10 diluted) in the presence of zVAD (20 µM, Cell Signaling, #60332), SMAC (1 µM, LC Laboratories, #B-9135) and the RIPK1 inhibitor for 72 h. Afterwards, membranes of the fixated skin equivalents were cut out with a scalpel, divided into two pieces, formalin fixed and embedded in paraffin. Primary human lesional T cells were isolated from freshly taken skin biopsies of LP (n=5) and LE (n=3) patients (patient characteristics see Table S 1) by emigration towards an IL-2 gradient followed by expansion with α-CD3/α-CD28 stimulation as described previously (J Invest Dermatol, (2018), Case Rep Pathol 2021, 8819560 (2021)). Supernatants of expanded lesional T cells were generated by 3-day stimulation with 0.75 µg/mL α-CD3 (pre-coated, BD Biosciences) and 0.75 µg/mL soluble α-CD28 (BD Biosciences). A mixture of all 8 lesional supernatants at equimolar ratio was used for stimulation of 3D keratinocyte skin equivalents. Concentrations of key cytokines in the supernatant mix of lesional T cells were determined by a multiplex ELISA (Biorad) and listed in Table S4. Table S4. Composition of lesional LP/LE-TCS mix. Hu = human. Cell free supernatants derived from keratinocyte stimulation experiments or lesional TCS from LP/LE patients were analysed for 27 cytokines, chemokines and growth factors using the Bio-Plex Pro Human Cytokine 27-plex Assay (Bio-Rad Laboratories, Hercules, Calif) according to the manufacturer's recommendation.

## CN1C(=O)[C@@H](NC(=O)c2nnc(Cc3ccccc3)[nH]2)COc2cccnc21 [SAR443122, 5-Benzyl-N-[(3S)-5-methyl-4-oxo-2,3-dihydropyrido[3,2-b][1,4]oxazepin-3-yl]-4H-1,2,4-triazole-3-carboxamide]
[1]; 1 mg/kg oral
  delta body temperature: -8.8 ± 0.5 °C
[1]; 5 mg/kg oral
  delta body temperature: -7.6 ± 1.2 °C
[1]; 15 mg/kg oral, p=0.0007 to Tnf-α/zVAD
  delta body temperature: -3.4 ± 1.3 °C
[2]; IFN-γ + TNF-α + zVAD + SMAC, dose dependent, p=0.0050 for 100 nM, n=4
  release of IL-1β: significantly diminished the release of IL-1β to basal levels
[2]; secreted cytokines, 100 ng/ml IFN-γ + TNF-α + zVAD + SMAC, n=3
  IL-1α, IL-1RA, CXCL5, IL-8 (CXCL8), GM-CSF and CCL20: significant reduction
[3]
  epidermal architecture: restored the normal epidermal architecture
[3]; stimulated control 102.0 ± 5.1, unstimulated 61.3 ± 5.4, p<0.0001
  epidermal thickness: 80.3 ± 5.1 µm
[4]
  RIPK1 autophosphorylation: efficiently blocked
[5]
  downregulation of CCL3: 62%
  downregulation of CXCL9: 57%
  downregulation of CXCL10: 40%
  downregulation of CXCL11: 43%
  downregulation of IFNg: 60%
  downregulation of IL1RA: 65%
  downregulation of TNF: 60%
[6]
  viability: 95.1 % ± 0.8
[7]
  release of CCL20: 29.1 % ± 4.4
  release of II,-1RA: 48.9 % ± 18.0
  release of TNF-α: 70.3 % ± 6.3
[7]; p=0.4757
  release of IL-8: 79.8 % ± 9.6

Reference: patent EP4652998A1, “TREATMENT OF RECEPTOR-INTERACTING PROTEIN KINASE 1- MEDIATED DISEASE WITH ECLITASERTIB” (Technische Universität München, priority 2024, dated 2025)
